Measured values reported in patent US20200038514A1, “FOLATE CONJUGATE FOR USE IN TARGETING TUMOR ASSOCIATED MACROPHAGES” (ENDOCYTE, INC., priority 2016, published 2020).

Key:
ST070 ovarian PDX tumors = test: In vivo activity against ovarian tumors; parameters: species or system mice; settings: Conjugate 5 0.5 μmol/kg SIW; EC1456 4.0 μmol/kg SIW; paclitaxel 15 mg/kg SIW; two weeks
Description: (§1) Mice were maintained and tumor volumes were measures according to Method 3.
(§2) Primary human Ovarian model ST070 fragments (2-4 mm in diameter) were inoculated subcutaneously at the right flank of each mouse. Mice were randomized into experimental groups of 7 mice each and test articles were injected through the lateral tail vein under sterile conditions in a volume of […] of phosphate-buffered saline (PBS).

TNBC PDX tumor = test: In vivo activity against triple negative breast tumors (FIG. 10); parameters: species or system mice; settings: Conjugate 5 0.27 μmol/kg BIW two weeks; erubulin mesylate 1.0 μmol/kg SIW two weeks
Description: as §1
as §2, with “TNBC” for “Ovarian”, “ST502 (2-4 mm in diameter) or primary human TNBC model ST738” for “ST070 fragments”

Row | Compound | ovarian PDX tumor size compared to untreated control (ST070 ovarian PDX tumors) | TNBC PDX tumor size compared to untreated control (TNBC PDX tumor)
1 | CC(=O)O[C@H]1C(=O)[C@@]2(C)[C@H]([C@H](OC(=O)c3ccccc3)[C@]3(O)C[C@H](OC(=O)[C@H](O)[C@@H](NC(=O)c4ccccc4)c4ccccc4)C(C)=C1C3(C)C)[C@]1(OC(C)=O)CO[C@@H]1C[C@@H]2O [paclitaxel, reference compound] | did not decrease ovarian PDX tumor size | 
2 | erubulin mesylate [reference compound] |  | did not decrease TNBC PDX tumor size
